# Entries after “also recorded” stand apart in the source; their conditions may differ.
# Assays:
# [1] = test system: mouse PCLS; assay: Viability of mouse PCLS (lung tissue toxicity); conditions: FIG. 10F
# [2] = test system: primary human airway smooth muscle (ASM) cells; assay: Contractile force screening (CFS), basal ASM cell contraction (strain energy); assay type: cell-based; conditions: for strain energy (ASM contraction): compared to pravastatin; for basal ASM cell contraction: FIG. 1A/1D; for reversibility of force inhibitory effect: media without Pit after treatment, FIG. 10D
# Protocol: Primary human airway smooth muscle (ASM) cells derived from both non-asthmatic and asthmatic donors were obtained from the Gift of Hope Organ and Tissue Donor Network. These cells have been well-characterized previously (see for example H. Yoshie et al., Biophys J (2018) 114(9):2194-99). All measurements were performed using cells at passage 5-8 from three non-asthmatic donors. Cells were grown on either 10% serum-containing F12 complete media, or serum-deprived media supplemented with insulin, transferrin, and selenium (Corning, Tewksbury, Mass.). Contractile Force Screening: Human ASM cells were grown to confluence in 96-well plates on custom NuSilTM 8100 elastic substrates (Avantor, Inc., Radnor, Pa.) (R. […] Fluorescent beads (diameter 400 nm) were embedded in the substrate surface to enable traction force calculations based on their displacements. To measure fractions, an inverted epi-fluorescence microscope (DMI 6000B, Leica Inc., Germany) equipped with a heated chamber (37° C.), a monochrome camera ([…]), and a motorized stage was used. Spatial images were recorded of substrate-embedded fluorescent beads at 10× magnification. Based on the bead displacements (resolution 15 μm) relative to a cell-free model, together with knowledge of substrate stiffness and thickness, fractions were computed using the approach of Fourier Transform Traction Cytometry ([…] et al., Pharmacol Ther (2014) 143(1):87-110), modified to the case of cell monolayers ([…] et al., Cell (2007) 129(3):511-22). From each fraction map, the root-mean-squared traction (RMST) value and strain energy were calculated and reported as a measure of normal contraction in the monolayer. On a well-by-well basis, the ratio of the strain energy after vs. before treatment was computed, and all values of a given treatment group were normalized to the mean of each treatment group. Comparison of Statins: […] MA is the immediate product of HMGCR action on HMB-CoA, so addition of MA would reverse the effect of statin inhibition of HMGCR. […] Simvastatin-acid (SA), atorvastatin, pravastatin, and pitavastatin were examined with CFS to determine the dose response of the ASM relaxation effect. […] From each ASM force map, the strain energy (i.e., the energy that is imparted to the substrate by the contractile cells, in pJ) was computed, to represent the average cellular contraction.
# [3] = test system: ASM cells; assay: Simulated deep breath (stretch-unstretch), cell mapping rheometry and CFS; assay type: cell-based, human; conditions: 1 μM, 24 hrs; for force recovery after single stretch-unstretch maneuver (stretch-induced ASM force relaxation): 10% magnitude, 4-sec stretch, recovery over 180 seconds, FIG. 12B
# Protocol: Well-defined biaxial stretch (4 sec duration, 10% magnitude) was imposed using the method of cell mapping rheometry. The strain energy from each ASM force map was computed as a metric of average cellular contraction, and reported as fold changes to the pre-stretch baseline value.
# Normal ASM was treated with pitavastatin (1 μM, 24 hrs, n=7), isoproterenol (10 μM, 30 min, n=6) or vehicle (n=7), and examined by CFS as described above. […] Shown are contraction values normalized to the untreated control group. […] The contraction force gradually recovered over 180 seconds. […] All data are reported as mean and standard error of the mean (SEM).
# [4] = test system: eotaxin-3; assay: IL13/TNFα-induced eotaxin-3 peptide secretion by ASM cells; assay type: cell-based, human; conditions: 2 mM pitavastatin, 72 hrs; cytokines 18 hrs at 10 ng/mL; 10% FBS; FIG. 14A
# Protocol: Non-asthmatic primary human ASM cells were grown to confluence and were either untreated or pre-treated with 2 mM pitavastatin and GGPP (10 mM) for a total of 72 hours. Total cytokine stimulation was for 18 hours at 10 ng/mL. […] All experiments were conducted under serum-containing media conditions (10% FBS).
# [5] = test system: F-actin; assay: F-actin expression, immunostaining; assay type: cell-based, human; conditions: 24 hrs; for basal F-actin expression: 1 μM, FIG. 15A/15B
# Protocol: (§1) Non-asthmatic primary human ASM cells were treated with either vehicle or pitavastatin (1 μM) for 24 hours. Cells were then immuno-stained for F-actin expression. […] Cell lysates were analyzed by western blot for total ROCK-1, total ROCK-2, total MLC-2, and phosphorylated MLC-2. As shown in FIGS. 15C and 15D, pitavastatin reduced the total expression of ROCK-1, ROCK-2, and MLC-2 (total and phosphorylated).
# Non-asthmatic primary human ASM cells were co-treated with 1 μM pitavastatin (Pit), Pit with 10 μM GGPP, or Pit with 10 μM GGPP plus 100 μM MA for 24 hrs.
# [6] = test system: MLC-2; assay: MLC-2 (total and phosphorylated) expression, western blot; assay type: cell-based, human; conditions: 1 μM, 24 hours
# Protocol: (§2) Antibodies for western blot analysis against total and phospho-MLC2 were obtained from Santa Cruz Biotechnology and Cell Signaling Technology, respectively. Antibodies for pROCK1, total ROCK1, and GAPDH were obtained from Abcam. Pitavastatin was obtained from Santa Cruz Biotechnology.
# as §1
# [7] = test system: Rho kinase (ROCK-1) phosphorylation; assay: Histamine-induced ROCK-1 phosphorylation, western blot; assay type: cell-based, human; conditions: 24 hrs; for inhibitory effect on ROCK-1 phosphorylation with mevalonate co-treatment: 1 μM with MA 200 μM
# Protocol: as §2
# Human ASM cells were treated with pitavastatin (1 μM) with or without mevalonate (MA, 200 μM) for 24 hours, then treated with histamine (10 μM) for 5 minutes.
# [8] = 1 μM, serum-deprived media, FIG. 10B
smiles,measurement,setting,value
O=C(O)C[C@H](O)C[C@H](O)/C=C/c1c(C2CC2)nc2ccccc2c1-c1ccc(F)cc1 [pitavastatin],lung tissue toxicity,[1],did not demonstrate any
same,"inhibitory potency on ASM contraction, dose-response ranking","[2]; 0-10 μM, FIG. 1C, 1D",most significant effect
same,strain energy (ASM contraction),"[2]; 0.4 μM, 24 hours, FIG. 1C",significant reduction in strain energy
same,basal ASM cell contraction,"[2]; 1 μM, 24 hours",potently and significantly inhibits basal ASM contraction
same,basal ASM cell contraction,"[2]; 1 μM, 24 hours, listed as Pitavastatin",more potent
same,relaxation effect at 24 hrs compared to simvastatin,[2]; [8],more significant at 24 hrs
same,relaxation effect at 24 hrs compared to simvastatin,"[2]; 1 μM, serum-deprived media, FIG. 10B, listed as Pit",significantly more efficacious than Sim
same,ASM relaxation over time compared to simvastatin,"[2]; 1 μM, all time points including 24 hours, with or without media starvation, FIG. 4C",greater ASM relaxation than simvastatin
same,reversibility of force inhibitory effect,[2]; 1 μM,reversible
same,reversibility of force inhibitory effect,"[2]; 1 μM, listed as Pit",reversed
same,ASM contraction over time compared to control,[2]; [8],reduced ASM contraction time-dependently
same,strain energy (ASM contraction),"[2]; 2 and 10 μM, 24 hours, FIG. 1C",significantly (and further) reduce strain energy
same,ASM contraction / ASM cell relaxation,[2]; FIG. 10A,inhibited ASM contraction
same,dose-dependent effect on ASM,"[2]; primary ASM cells from three different human donors, FIG. 3",dose-dependently relax ASM
same,potency on basal ASM contraction relative to simvastatin,"[2]; same dose, 1 μM, 24 hours, FIG. 1D",more potent than simvastatin
same,start of ASM relaxing effects,"[2]; time-dependent effects, FIG. 4C",4 h
same,basal ASM contraction compared to untreated controls,[3]; FIG. 12A,significantly inhibited basal ASM contraction
same,force recovery after single stretch-unstretch maneuver (stretch-induced ASM force relaxation),[3],significantly inhibited
same,force recovery after single stretch-unstretch maneuver (stretch-induced ASM force relaxation),[3]; listed as Pitavastatin,augmented stretch-induced ASM force relaxation
same,IL13/TNFα-induced eotaxin-3 peptide secretion,[4],inhibited
same,reductions of F-actin expression and ASM contraction with GGPP and MA co-treatment,"[5]; 1 μM Pit with 10 μM GGPP, or with 10 μM GGPP and 100 μM MA, FIG. 15B",abrogated
same,basal F-actin expression,[5],significantly reduced
same,basal F-actin expression,[5]; listed as Pit,reduced F-actin expression; also recorded: significantly reduced
same,expression of MLC-2 (total and phosphorylated),[6],reduced
same,inhibitory effect on ROCK-1 phosphorylation with mevalonate co-treatment,[7],abrogated
same,inhibitory effect on ROCK-1 phosphorylation with mevalonate co-treatment,[7]; listed as Pit,abrogates
same,histamine-induced ROCK1 phosphorylation,"[7]; 1 μM, histamine 10 μM, 5 min, FIG. 5A",significantly reduced; also recorded: inhibits
